Experimental data published in ChEMBL document CHEMBL5625173, “Antimycobacterial pyridine carboxamides: From design to in vivo activity” (Eur J Med Chem, 2023).
Converted amounts (≈) assume the structure as drawn.

Legend:
Type in all cases: functional
[1] = test system: Mycobacterium tuberculosis; assay: Antimycobacterial activity against Mycobacterium tuberculosis H37Rv overexpressing folC by alamar blue staining based microplate analysis
[2] = test system: Mycobacterium tuberculosis; assay: Antimycobacterial activity against Mycobacterium tuberculosis H37Rv overexpressing folP1 by alamar blue staining based microplate analysis
[3] = test system: Mycobacterium tuberculosis; assay: Antimycobacterial activity against Mycobacterium tuberculosis H37Rv overexpressing dfrA by alamar blue staining based microplate analysis
[4] = test system: Mycobacterium tuberculosis; assay: Antimycobacterial activity against Mycobacterium tuberculosis H37Rv overexpressing ribD by alamar blue staining based microplate analysis

Compound | MIC [1] [µg/mL] | MIC [2] [µg/mL] | MIC [3] [µg/mL] | MIC [4] [µg/mL]
O=C(Nc1ccc(C(=O)[O-])c(O)c1)c1ccc2ccccc2n1.[Na+] | 8 | 8 | 8 | 8
Nc1ccc(C(=O)O)c(O)c1 [AMINOSALICYLIC ACID] | 0.02 (≈ 0.131 µM) | 0.02 (≈ 0.131 µM) | > 5 | 2.5 (≈ 16.3 µM)
O=C(Nc1ccc(C(=O)O)c(O)c1)c1ccc2ccccc2n1 | 8 (≈ 25.9 µM) | 8 (≈ 25.9 µM) | 8 (≈ 25.9 µM) | 8 (≈ 25.9 µM)
